Results as given in the NIST ThermoML archive (doi:10.1016/j.jct.2010.10.016).
± gives the expanded uncertainty stated by the source.

Experiment: xn = mol fraction of the nth substance listed
Details: 101 kPa, Liquid; for viscosity: Capillary tube (Ostwald / Ubbelohde) method; for mass density: Pycnometric method; for speed of sound: Resonance method

CCCCOCCO [2-butoxyethan-1-ol] + C[N+](=O)[O-]
Details | mass density [kg/m3] | speed of sound [m/s] | viscosity [mPa·s]
293.15 K, x2 = 0 | 901.19 ± 0.46 | 1323.9 ± 2.3 | 3.239 ± 0.029
293.15 K, x2 = 0.05 | 905.83 ± 0.47 | – | –
293.15 K, x2 = 0.0507 | – | 1322.4 ± 2.3 | –
293.15 K, x2 = 0.0557 | – | – | 3.019 ± 0.027
293.15 K, x2 = 0.0999 | 910.77 ± 0.48 | – | –
293.15 K, x2 = 0.1001 | – | 1321.8 ± 2.3 | –
293.15 K, x2 = 0.106 | – | – | 2.815 ± 0.025
293.15 K, x2 = 0.1974 | – | – | 2.451 ± 0.021
293.15 K, x2 = 0.2 | 921.75 ± 0.5 | – | –
293.15 K, x2 = 0.2003 | – | 1318.8 ± 2.3 | –
293.15 K, x2 = 0.3 | 934.29 ± 0.52 | – | –
293.15 K, x2 = 0.3003 | – | 1316.1 ± 2.3 | –
293.15 K, x2 = 0.3083 | – | – | 2.031 ± 0.017
293.15 K, x2 = 0.4 | 948.84 ± 0.54 | – | –
293.15 K, x2 = 0.4005 | – | 1313.7 ± 2.3 | –
293.15 K, x2 = 0.4014 | – | – | 1.716 ± 0.014
293.15 K, x2 = 0.4487 | – | – | 1.571 ± 0.013
293.15 K, x2 = 0.4997 | – | – | 1.432 ± 0.012
293.15 K, x2 = 0.5 | 966.21 ± 0.57 | – | –
293.15 K, x2 = 0.5002 | – | 1312 ± 2.3 | –
293.15 K, x2 = 0.5492 | – | – | 1.307 ± 0.011
293.15 K, x2 = 0.5947 | – | – | 1.203 ± 0.01
293.15 K, x2 = 0.6 | 987.24 ± 0.6 | 1311.8 ± 2.3 | –
293.15 K, x2 = 0.699 | – | – | 0.996 ± 0.009
293.15 K, x2 = 0.7 | 1013.09 ± 0.64 | 1313.7 ± 2.3 | –
293.15 K, x2 = 0.7999 | – | 1318.2 ± 2.4 | –
293.15 K, x2 = 0.8002 | 1045.18 ± 0.7 | – | –
293.15 K, x2 = 0.8012 | – | – | 0.838 ± 0.008
293.15 K, x2 = 0.8981 | – | – | 0.72 ± 0.007
293.15 K, x2 = 0.8999 | 1085.39 ± 0.7 | 1326.4 ± 2.4 | –
293.15 K, x2 = 0.9475 | – | – | 0.679 ± 0.007
293.15 K, x2 = 0.95 | – | 1332.4 ± 2.4 | –
293.15 K, x2 = 0.9503 | 1109.89 ± 0.69 | – | –
298.15 K, x2 = 0 | 896.29 ± 0.45 | 1306.8 ± 2.3 | –
298.15 K, x2 = 0.05 | 900.85 ± 0.45 | – | –
298.15 K, x2 = 0.0507 | – | 1305.6 ± 2.3 | –
298.15 K, x2 = 0.0999 | 905.68 ± 0.46 | – | –
298.15 K, x2 = 0.1001 | – | 1304.5 ± 2.3 | –
298.15 K, x2 = 0.2 | 916.48 ± 0.47 | – | –
298.15 K, x2 = 0.2003 | – | 1302.2 ± 2.3 | –
298.15 K, x2 = 0.3 | 928.9 ± 0.49 | – | –
298.15 K, x2 = 0.3003 | – | 1299.6 ± 2.3 | –
298.15 K, x2 = 0.4 | 943.34 ± 0.5 | – | –
298.15 K, x2 = 0.4005 | – | 1297.2 ± 2.3 | –
298.15 K, x2 = 0.5 | 960.53 ± 0.52 | – | –
298.15 K, x2 = 0.5002 | – | 1295.5 ± 2.3 | –
298.15 K, x2 = 0.6 | 981.35 ± 0.54 | 1295.2 ± 2.3 | –
298.15 K, x2 = 0.7 | 1006.9 ± 0.57 | 1296.8 ± 2.3 | –
298.15 K, x2 = 0.7999 | – | 1300.9 ± 2.3 | –
298.15 K, x2 = 0.8002 | 1038.68 ± 0.6 | – | –
298.15 K, x2 = 0.8999 | 1078.61 ± 0.64 | 1308.5 ± 2.4 | –
298.15 K, x2 = 0.95 | – | 1313.8 ± 2.4 | –
298.15 K, x2 = 0.9503 | 1103.01 ± 0.66 | – | –
298.45 K, x2 = 0 | – | – | 2.825 ± 0.026
298.45 K, x2 = 0.0506 | – | – | 2.654 ± 0.025
298.45 K, x2 = 0.1012 | – | – | 2.483 ± 0.023
298.45 K, x2 = 0.2015 | – | – | 2.165 ± 0.02
298.45 K, x2 = 0.2997 | – | – | 1.873 ± 0.017
298.45 K, x2 = 0.4047 | – | – | 1.581 ± 0.014
298.45 K, x2 = 0.4498 | – | – | 1.464 ± 0.013
298.45 K, x2 = 0.5008 | – | – | 1.339 ± 0.012
298.45 K, x2 = 0.5481 | – | – | 1.234 ± 0.011
298.45 K, x2 = 0.5976 | – | – | 1.131 ± 0.01
298.45 K, x2 = 0.6984 | – | – | 0.943 ± 0.009
298.45 K, x2 = 0.7981 | – | – | 0.8 ± 0.008
298.45 K, x2 = 0.8986 | – | – | 0.689 ± 0.007
298.45 K, x2 = 0.9394 | – | – | 0.655 ± 0.007
303.15 K, x2 = 0 | 892.35 ± 0.45 | – | 2.449 ± 0.024
303.15 K, x2 = 0.05 | 896.7 ± 0.46 | – | –
303.15 K, x2 = 0.0522 | – | – | 2.307 ± 0.023
303.15 K, x2 = 0.0999 | 901.4 ± 0.47 | – | –
303.15 K, x2 = 0.1004 | – | – | 2.171 ± 0.021
303.15 K, x2 = 0.2 | 911.94 ± 0.48 | – | –
303.15 K, x2 = 0.2155 | – | – | 1.85 ± 0.018
303.15 K, x2 = 0.299 | – | – | 1.635 ± 0.016
303.15 K, x2 = 0.3 | 924.13 ± 0.5 | – | –
303.15 K, x2 = 0.3996 | – | – | 1.399 ± 0.013
303.15 K, x2 = 0.4495 | – | – | 1.292 ± 0.012
303.15 K, x2 = 0.5002 | – | – | 1.191 ± 0.011
303.15 K, x2 = 0.5482 | – | – | 1.102 ± 0.01
303.15 K, x2 = 0.5993 | – | – | 1.01 ± 0.01
303.15 K, x2 = 0.6998 | – | – | 0.858 ± 0.008
303.15 K, x2 = 0.7994 | – | – | 0.738 ± 0.007
303.15 K, x2 = 0.9005 | – | – | 0.648 ± 0.007
303.15 K, x2 = 0.9436 | – | – | 0.619 ± 0.006
